Results as given in patent US4432973A, “Benzoyl- and α-hydroxybenzyl-phenyl-glycosides and application thereof in therapeutics” (Societe de Recherches Industrielles (S.O.R.I.), priority 1980, dated 1984).

Legend:
[1] = Acute toxicity in the mouse by the I.P. route; type: in vivo; conditions: for LD50: read-out: DL-50 (lethal dose involving the death of half of the animals)
Excerpt: The acute toxicity was studied in the mouse by the I.P. route. It is expressed in the form of DL-50 (lethal dose involving the death of half of the animals) or DL-0 (maximum non-lethal dose).

[2] = Anti-ulcer activity: ulcer caused by aspirin; type: in vivo, rat (male Wistar); conditions: aspirin 192 mg/kg per os, standardised to control batch and cimetidine (index 1)
Procedure: The experiment is carried out on male Wistar rats of 180 to 200 g. The products to be tested are administered at 100 mg/kg I.P. (unless indicated to the contrary in Table IV).
At t=0, the rats are made to fast and a first administration of the product to be tested is made.
At t=18 hours, 2 ml of an ulcer-forming suspension with 192 mg of aspirin/kg are administered per os then a second administration of the product to be tested is made.
At t=22 hours, the animals are sacrificed and the ulcers are marked as follows: small point-like ulcers: mark 1 more extensive ulcers: mark 3 highly extensive or very deep ulcers: mark 9
This marking is standardised with respect to a control batch and to cimetidine (a reference product) to which index 1 has been allocated.

[3] = Anti-hypoxic activity: survival to hypoxia (nitrogen-oxygen 95:5); type: in vivo, mouse (Swiss male); conditions: I.P., 1/10th of LD-50 or 100 mg/kg when LD-0 ≥ 800 mg/kg; up to 15 minutes; mouse
Procedure: The experiment is carried out on batches of 20 Swiss male mice weighing from 20 to 30 g. Each product to be tested is administered to the mice by intraperitoneal route at a dose corresponding to 1/10th of the LD-50 or at a dose of 100 mg/kg when the LD-0 is higher than or equal to 800 mg/kg. The mice are placed in a nitrogen-oxygen (95:5) v/v atmosphere. The survival time of the mice is then measured up to 15 minutes maximum.
The results shown in Table VII are expressed in percentage of survival with respect to a non-treated control batch and a batch treated with an anti-hypoxic reference product [specialty known under the trade name of "Duxil" and which is constituted by a mixture of Almitrine bis-methanesulfonate and of Raubasine in the weight ratio 3:1], the anti-hypoxic reference product being administered at the dose of 18 mg/kg I.P.

| SMILES | DL-0 (maximum non-lethal dose) ([1]; I.P.) | Ulcer index ([2]; 100 mg/kg I.P.) | Survival (survival percentage to hypoxic aggression) [3] | further results |
| --- | --- | --- | --- | --- |
| CC(=O)N[C@H]1[C@H](Oc2c(C)cc(C(=O)c3ccccc3C)cc2C)O[C@H](COS(=O)(=O)O)[C@@H](OS(=O)(=O)O)[C@@H]1OS(=O)(=O)O [Example 68] | > 800 mg/kg IP |  |  |  |
| Cc1cc(C(=O)c2ccc(Cl)cc2)cc(C)c1O[C@@H]1OC[C@@H](O)[C@H](O)[C@H]1O [Example 22] |  | 1.46 |  | LD50 ([1]; in vivo, ip, I.P.): 500 mg/kg |
| Cc1cc(C)c(C(=O)c2ccc(O[C@@H]3OC[C@@H](O)[C@H](O)[C@H]3O)cc2)c(C)c1 [Example 32] | > 800 mg/kg IP | 0.54 |  |  |
| CC(=O)O[C@@H]1[C@@H](OC(C)=O)[C@H](Oc2cccc(C(=O)c3ccc(Cl)cc3)c2)OC[C@H]1OC(C)=O [Example 82] | > 800 mg/kg IP |  |  |  |
| O=C(c1ccc(O[C@@H]2O[C@H](CO)[C@H](O)[C@H](O)[C@H]2O)cc1)c1ccc([N+](=O)[O-])cc1 [Example 20] | > 800 mg/kg IP | 0.62 |  |  |
| O=C(c1ccc(Cl)cc1)c1ccc(O[C@@H]2O[C@H](CO)[C@@H](O)[C@H](O)[C@H]2O)cc1 [Example 124] |  |  | + (from 30 to 49%) | DL-0 (maximum non-lethal dose) ([1]; in vivo, ip): > 800 mg/kg IP |
| Cc1ccc(C(O)c2ccc(O[C@@H]3OC[C@@H](O)[C@H](O)[C@H]3O)cc2)cc1 (stereo partly shown) [Example 90] | > 800 mg/kg IP | 0.57 |  |  |
| O=C(c1ccc(O[C@@H]2OC[C@@H](O)[C@H](O)[C@H]2O)cc1)c1ccc(C(F)(F)F)cc1 [Example 11] |  |  | ++ (from 50 to 79%) | Ulcer index ([2]; 200 mg/kg P.O.): 0; DL-0 (maximum non-lethal dose) ([1]; in vivo, ip): > 800 mg/kg IP |
| O=C(c1ccc(O[C@@H]2OC[C@@H](OS(=O)(=O)O)[C@H](OS(=O)(=O)O)[C@H]2OS(=O)(=O)O)cc1)c1cccc([N+](=O)[O-])c1 [Example 72] |  | 0.47 |  | LD50 ([1]; in vivo, ip, I.P.): 650 mg/kg |
| CC(=O)N[C@H]1[C@H](Oc2ccc(C(=O)c3ccccc3C)cc2C)O[C@H](CO)[C@@H](O)[C@@H]1O [Example 122] |  | 0.91 | + (from 30 to 49%) | DL-0 (maximum non-lethal dose) ([1]; in vivo, ip): > 800 mg/kg IP |
| OC(c1ccc(Br)cc1)c1ccc(O[C@@H]2OC[C@@H](O)[C@H](O)[C@H]2O)cc1 (stereo partly shown) [Example 95] | > 800 mg/kg IP | 0.52 |  |  |
| CC(=O)N[C@H]1[C@H](Oc2ccc(C(O)c3ccc(C)cc3)cc2)O[C@H](CO)[C@@H](O)[C@@H]1O (stereo partly shown) [Example 128] |  |  | ++ (from 50 to 79%) | DL-0 (maximum non-lethal dose) ([1]; in vivo, ip): > 800 mg/kg IP |
| CC(=O)N[C@H]1[C@H](Oc2c(C)cc(C(=O)c3ccccc3C)cc2C)O[C@H](CO)[C@@H](O)[C@@H]1O [Example 26] |  | 0.60 | + (from 30 to 49%) | LD50 ([1]; in vivo, ip, I.P.): 700 mg/kg |
| COC(=S)Nc1ccc(C(=O)c2ccc(O[C@@H]3OC[C@@H](O)[C@H](O)[C@H]3O)cc2)cc1 [Example 65] | > 800 mg/kg IP |  |  |  |
| O=C(c1ccc(O[C@@H]2O[C@H](CO)[C@@H](O)[C@H](O)[C@H]2O)cc1)c1ccc([N+](=O)[O-])cc1 [Example 19] |  | 0.74 | ++ (from 50 to 79%) | DL-0 (maximum non-lethal dose) ([1]; in vivo, ip): > 800 mg/kg IP |
| O=C(c1ccc(O[C@@H]2OC[C@@H](O)[C@H](O)[C@H]2O)cc1)c1cccc(C(F)(F)F)c1 [Example 13] |  | 0.46 | ++ (from 50 to 79%) | LD50 ([1]; in vivo, ip, I.P.): 170 mg/kg |
| CC(=O)O[C@@H]1[C@@H](OC(C)=O)[C@H](Oc2ccc(C(=O)c3ccc(Cl)cc3Cl)cc2)OC[C@H]1OC(C)=O [Example 74] | > 800 mg/kg IP | 0.91 |  |  |
| O=C(c1ccc(Cl)cc1)c1cccc(O[C@@H]2OC[C@@H](O)[C@H](O)[C@H]2O)c1 [Example 48] |  | 0.75 |  | LD50 ([1]; in vivo, ip, I.P.): 220 mg/kg |
| Cc1cc(C(=O)c2ccccc2)cc([N+](=O)[O-])c1O[C@@H]1OC[C@@H](O)[C@H](O)[C@H]1O [Example 25] |  | 0.54 |  | LD50 ([1]; in vivo, ip, I.P.): 330 mg/kg |
| CC(=O)N[C@H]1[C@H](Oc2ccc(C(O)c3ccc(Cl)cc3)cc2)O[C@H](CO)[C@@H](O)[C@@H]1O (stereo partly shown) [Example 100] |  | 0.35 | ++ (from 50 to 79%) | DL-0 (maximum non-lethal dose) ([1]; in vivo, ip): > 800 mg/kg IP |

| SMILES | DL-0 (maximum non-lethal dose) ([1]; I.P.) | Ulcer index ([2]; 100 mg/kg I.P.) | Survival (survival percentage to hypoxic aggression) [3] | further results |
| --- | --- | --- | --- | --- |
| Cc1ccccc1C(=O)c1cccc(O[C@@H]2OC[C@@H](O)[C@H](O)[C@H]2O)c1 [Example 52] | > 800 mg/kg IP |  |  |  |
| O=[N+]([O-])c1ccc(C(O)c2ccc(O[C@@H]3O[C@H](CO)[C@@H](O)[C@H](O)[C@H]3O)cc2)cc1 (stereo partly shown) [Example 129] | > 800 mg/kg IP |  |  |  |
| CC(=O)O[C@@H]1[C@@H](OC(C)=O)[C@H](Oc2cccc(C(=O)c3ccccc3)c2)OC[C@H]1OC(C)=O [Example 83] |  |  | ++ (from 50 to 79%) | DL-0 (maximum non-lethal dose) ([1]; in vivo, ip): > 800 mg/kg IP |
| CC(=O)N[C@H]1[C@H](Oc2c(C)cc(C(=O)c3c(C)cccc3C)cc2C)O[C@H](CO)[C@@H](O)[C@@H]1O [Example 37] |  | 1.02 |  | LD50 ([1]; in vivo, ip, I.P.): 600 mg/kg |
| Cc1cc(O)ccc1C(=O)c1cc(C)c(O[C@@H]2O[C@H](CO)[C@@H](O)[C@H](O)[C@H]2O)c(C)c1 [Example 27] | > 800 mg/kg IP | 0.42 |  |  |
| O=C(c1ccc(O[C@@H]2OC[C@@H](O)[C@H](O)[C@H]2O)cc1)c1ccc(Cl)cc1Cl [Example 31] | > 800 mg/kg IP | 1.04 |  |  |
| Cc1cc(C(=O)c2ccc(Cl)cc2)ccc1O[C@@H]1OC[C@@H](O)[C@H](O)[C@H]1O [Example 28] |  |  | ++ (from 50 to 79%) | DL-0 (maximum non-lethal dose) ([1]; in vivo, ip): > 800 mg/kg IP |
| CC(=O)O[C@@H]1[C@@H](OC(C)=O)[C@H](Oc2ccc(C(=O)c3cccc([N+](=O)[O-])c3)cc2)OC[C@H]1OC(C)=O [Example 80] | > 800 mg/kg IP | 1.00 |  |  |
| COc1cc(C(=O)c2ccc(O[C@@H]3OC[C@@H](OC(C)=O)[C@H](OC(C)=O)[C@H]3OC(C)=O)cc2)cc(OC)c1O [Example 84] | > 800 mg/kg IP |  |  |  |
| CC(=O)O[C@@H]1[C@@H](OC(C)=O)[C@H](Oc2ccc(C(=O)c3c(C)cc(C)cc3C)cc2)OC[C@H]1OC(C)=O [Example 73] | > 800 mg/kg IP | 0.52 |  |  |
| CC(=O)O[C@@H]1[C@@H](OC(C)=O)[C@H](Oc2ccc(C(=O)c3ccc(N=C=S)cc3)cc2)OC[C@H]1OC(C)=O [Example 42] | > 800 mg/kg IP |  |  |  |
| CC(=O)O[C@@H]1[C@@H](OC(C)=O)[C@H](Oc2ccc(C(=O)c3ccccc3[N+](=O)[O-])cc2)OC[C@H]1OC(C)=O [Example 78] | > 800 mg/kg IP |  |  |  |
| Cc1ccc(C(=O)c2ccc(O[C@@H]3O[C@H](CO)[C@@H](O)[C@H](O)[C@H]3O)cc2)cc1 [Example 127] |  |  | ++ (from 50 to 79%) | LD50 ([1]; in vivo, ip, I.P.): 700 mg/kg |
| Cc1ccc(C(O)c2cccc(O[C@@H]3OC[C@@H](O)[C@H](O)[C@H]3O)c2)cc1 (single isomer, unassigned) [Example 107] |  |  |  | DL-50 (lethal dose involving the death of half of the animals) ([1]; I.P.): 550 mg/kg IP |
| Cc1ccc(C(=O)c2cccc(O[C@@H]3OC[C@@H](O)[C@H](O)[C@H]3O)c2)cc1 [Example 49] | > 800 mg/kg IP | 1.21 |  |  |
| CC(=O)N[C@H]1[C@H](Oc2ccc(C(=O)c3ccccc3Cl)cc2)O[C@H](CO)[C@@H](O)[C@@H]1O [Example 120] |  |  | +++ (higher than or equal to 80%) | DL-0 (maximum non-lethal dose) ([1]; in vivo, ip): > 800 mg/kg IP |
| O=C(c1ccc(C(F)(F)F)cc1)c1cccc(O[C@@H]2OC[C@@H](O)[C@H](O)[C@H]2O)c1 [Example 53, [3-(4-trifluoromethylbenzoyl)-phenyl]-β-D-xylopyranoside] |  | 0.64 |  | LD50 ([1]; in vivo, ip, I.P.): 550 mg/kg |
| O=C(c1ccccc1)c1ccc(O[C@@H]2O[C@H](CO)[C@@H](O)[C@H](O)[C@H]2O)cc1 [Example 126] |  |  | + (from 30 to 49%) | DL-0 (maximum non-lethal dose) ([1]; in vivo, ip): > 800 mg/kg IP |
| OC(c1ccc(O[C@@H]2OC[C@@H](O)[C@H](O)[C@H]2O)cc1)c1cccc(C(F)(F)F)c1 (stereo partly shown) [Example 93] | > 800 mg/kg IP |  |  |  |
| COc1cc(C(=O)c2ccc(O[C@@H]3OC[C@@H](O)[C@H](O)[C@H]3O)cc2)cc(OC)c1OC [Example 33] | > 800 mg/kg IP | 0.46 |  |  |
